Measurements reported in patent publication US12157746B2, “Tetrahydro-1H-pyrazino[2,1-a]isoindolylquinoline compounds for the treatment of autoimmune disease” (F. HOFFMANN-LA ROCHE AG, priority 2018, dated 2024).

Biological target: T1, human TLR7 (Homo sapiens, UniProt Q9NYK1)
T1 sequence (Q9NYK1 27-1049): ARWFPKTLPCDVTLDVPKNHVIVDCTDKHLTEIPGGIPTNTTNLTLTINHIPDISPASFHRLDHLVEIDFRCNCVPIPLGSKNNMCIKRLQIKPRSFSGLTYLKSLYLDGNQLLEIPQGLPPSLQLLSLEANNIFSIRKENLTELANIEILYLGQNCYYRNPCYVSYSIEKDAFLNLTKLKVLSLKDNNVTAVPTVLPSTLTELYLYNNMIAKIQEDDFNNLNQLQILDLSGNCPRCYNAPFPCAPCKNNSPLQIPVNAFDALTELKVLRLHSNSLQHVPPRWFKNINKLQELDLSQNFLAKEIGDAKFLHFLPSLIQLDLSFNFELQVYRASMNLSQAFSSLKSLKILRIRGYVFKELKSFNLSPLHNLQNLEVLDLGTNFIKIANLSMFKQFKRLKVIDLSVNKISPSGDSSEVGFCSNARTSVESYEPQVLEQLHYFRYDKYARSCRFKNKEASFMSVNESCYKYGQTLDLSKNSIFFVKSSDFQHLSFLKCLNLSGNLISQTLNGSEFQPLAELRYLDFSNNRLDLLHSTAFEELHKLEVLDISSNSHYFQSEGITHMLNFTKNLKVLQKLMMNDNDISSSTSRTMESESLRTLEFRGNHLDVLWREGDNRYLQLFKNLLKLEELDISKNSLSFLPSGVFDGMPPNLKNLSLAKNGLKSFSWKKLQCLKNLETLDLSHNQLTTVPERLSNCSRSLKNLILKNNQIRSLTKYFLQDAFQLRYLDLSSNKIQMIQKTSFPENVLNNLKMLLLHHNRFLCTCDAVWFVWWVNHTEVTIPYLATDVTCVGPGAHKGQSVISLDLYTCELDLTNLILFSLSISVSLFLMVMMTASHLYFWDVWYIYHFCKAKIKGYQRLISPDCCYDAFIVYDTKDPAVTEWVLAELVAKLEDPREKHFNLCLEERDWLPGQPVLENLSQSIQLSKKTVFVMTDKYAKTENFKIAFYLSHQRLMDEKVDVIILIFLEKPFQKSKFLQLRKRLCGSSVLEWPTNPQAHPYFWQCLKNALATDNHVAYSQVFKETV
Assay: HEK293-Blue-hTLR-7 cells assay
Type: cell-based
Settings: HEK293-Blue-hTLR7 cells, R848 stimulation, 20 hrs, SEAP reporter; read-out: HEK/hTLR7 IC50
Description: HEK293-Blue-hTLR-7 Cells Assay:
A stable HEK293-Blue-hTLR-7 cell line was purchased from InvivoGen (Cat. #: hkb-htlr7, San Diego, California, USA). These cells were originally designed for studying the stimulation of human TLR7 by monitoring the activation of NF-κB. A SEAP (secreted embryonic alkaline phosphatase) reporter gene was placed under the control of the IFN-β minimal promoter fused to five NF-κB and AP-1-binding sites. The SEAP was induced by activating NF-κB and AP-1 via stimulating HEK-Blue hTLR7 cells with TLR7 ligands. Therefore the reporter expression was declined by TLR7 antagonist under the stimulation of a ligand, such as R848 (Resiquimod), for incubation of 20 hrs. The cell culture supernatant SEAP reporter activity was determined using QUANTI-Blue™ kit (Cat. #: rep-qb1, Invivogen, San Diego, Ca. USA) at a wavelength of 640 nm, a detection medium that turns purple or blue in the presence of alkaline phosphatase.
HEK293-Blue-hTLR7 cells were incubated at a density of 250,000˜450,000 cells/mL in a volume of 170 μL in a 96-well plate in Dulbecco's Modified Eagle's medium (DMEM) containing 4.5 g/L glucose, 50 U/mL penicillin, […], […], 2 mM L-glutamine, 10% (v/v) heat-inactivated fetal bovine serum with addition of 20 μL test compound 1n a serial dilution in the presence of final DMSO at 1% and 10 μL of 20 uM R848 in above DMEM, perform incubation under 37° C. in a CO2 incubator for 20 hrs. Then 20 μL of the supernatant from each well was incubated with 180 μL Quanti-blue substrate solution at 37° C. for 2 hrs and the absorbance was read at 620-655 nm using a spectrophotometer. The signaling pathway that TLR7 activation leads to downstream NF-κB activation has been widely accepted, and therefore similar reporter assay was modified for evaluating TLR7 antagonist.

| Structure (SMILES) | IC50 [nM] |
| --- | --- |
| CO[C@@H]1CN(c2ccc3c(c2)CN2C3CN(c3ccc(C#N)c4ncccc34)C[C@H]2C)C[C@@H]1N (relative stereo) [Example 17, 5-[(4R,10bS)-8-[cis-3-amino-4-methoxy-pyrrolidin-1-yl]-4-methyl-3,4,6,10b-tetrahydro-1H-pyrazino[2,1-a]isoindol-2-yl]quinoline-8-carbonitrile] | < 3.2 |
| C[C@@H]1CN(c2ccc(C#N)c3ncccc23)CC2c3ccc(N4C[C@H](N)[C@@H](O)C4)cc3CN21 (relative stereo) [Example 21, 5-[(4R,10bS)-8-[trans-3-amino-4-hydroxy-pyrrolidin-1-yl]-4-methyl-3,4,6,10b-tetrahydro-1H-pyrazino[2,1-a]isoindol-2-yl]quinoline-8-carbonitrile] | 5.8 |
| COC1CN(c2ccc3c(c2)CN2C3CN(c3ccc(C#N)c4ncccc34)C[C@H]2C)CC1N (single isomer, unassigned) [Example 16B] | 4.5 |
| N#Cc1ccc(N2CCN3Cc4cc(N5CCNCC5)ccc4C3C2)c2scnc12 (stereo not shown) [Example 4, 7-(8-piperazin-1-yl-3,4,6,10b-tetrahydro-1H-pyrazino[2,1-a]isoindol-2-yl)-1,3-benzothiazole-4-carbonitrile] | 18.3 |
| C[C@@H]1CN(c2ccc(C#N)n3nccc23)C[C@@H]2c3ccc(N4CCNCC4)cc3CN12 [Example 5, 4-[(4R,10bS)-4-methyl-8-piperazin-1-yl-3,4,6,10b-tetrahydro-1H-pyrazino[2,1-a]isoindol-2-yl]pyrazolo[1,5-a]pyridine-7-carbonitrile] | 4.9 |
| C[C@@H]1CN(c2ccc(C#N)c3ncccc23)C[C@@H]2c3ccc(N4CC5CNCC(C4)O5)cc3CN12 [Example 14, 5-[(4R,10bS)-4-methyl-8-(9-oxa-3,7-diazabicyclo[3.3.1]nonan-3-yl)-3,4,6,10b-tetrahydro-1H-pyrazino[2,1-a]isoindol-2-yl]quinoline-8-carbonitrile] | 4.5 |
| C[C@@H]1CN(c2ccc(C#N)c3ncccc23)C[C@@H]2c3ccc(N4CCNCC(O)C4)cc3CN12 (stereo partly drawn) [Example 15, 5-[(4R,10bS)-8-(6-hydroxy-1,4-diazepan-1-yl)-4-methyl-3,4,6,10b-tetrahydro-1H-pyrazino[2,1-a]isoindol-2-yl]quinoline-8-carbonitrile] | 5.8 |
| C[C@@H]1CN(c2ccc(C#N)c3ncccc23)C[C@@H]2c3ccc(N4CC(N)C5(COC5)C4)cc3CN12 (stereo partly drawn) [Example 18, 5-[(4R,10bS)-8-(5-amino-2-oxa-7-azaspiro[3.4]octan-7-yl)-4-methyl-3,4,6,10b-tetrahydro-1H-pyrazino[2,1-a]isoindol-2-yl]quinoline-8-carbonitrile] | 4.9 |
| C[C@@H]1CN(c2ccc(C#N)c3ncccc23)C[C@@H]2c3ccc(N4CC[C@@H](N)C4)cc3CN12 [Example 20, 5-[(4R,10bS)-8-[(3R)-3-aminopyrrolidin-1-yl]-4-methyl-3,4,6,10b-tetrahydro-1H-pyrazino[2,1-a]isoindol-2-yl]quinoline-8-carbonitrile] | 3.4 |
| C[C@@H]1CN(c2ccc(C#N)c3ncccc23)C[C@@H]2c3ccc(N4CC(N)C4)cc3CN12 [Example 22, 5-[(4R,10bS)-8-(3-aminoazetidin-1-yl)-4-methyl-3,4,6,10b-tetrahydro-1H-pyrazino[2,1-a]isoindol-2-yl]quinoline-8-carbonitrile] | < 3.2 |

Continued, values first:

| IC50 [nM] | Structure (SMILES) |
| --- | --- |
| 6.9 | CO[C@H]1CN(c2ccc3c(c2)CN2[C@H](C)CN(c4ccc(C#N)c5ncccc45)C[C@H]32)C[C@@H]1N (relative stereo) [Example 16, 5-[(4R,10bS)-8-[trans-3-amino-4-methoxy-pyrrolidin-1-yl]-4-methyl-3,4,6,10b-tetrahydro-1H-pyrazino[2,1-a]isoindol-2-yl]quinoline-8-carbonitrile] |
| 5.3 | CO[C@H]1CN(c2ccc3c(c2)CN2C3CN(c3ccc(C#N)c4ncccc34)C[C@H]2C)C[C@@H]1N (single isomer, unassigned) [Example 16A] |
| 4.3 | C[C@@H]1CN(c2ccc(C#N)c3ncccc23)C[C@@H]2c3ccc(N4C[C@@H](N)[C@H](O)C4)cc3CN12 (single isomer, unassigned) [Example 40B] |
| < 3.2 | C[C@@H]1CN(c2ccc(C#N)c3ncsc23)C[C@@H]2c3ccc(N4CCNCC4)cc3CN12 [Example 6, 7-[(4R,10bS)-4-methyl-8-piperazin-1-yl-3,4,6,10b-tetrahydro-1H-pyrazino[2,1-a]isoindol-2-yl]-1,3-benzothiazole-4-carbonitrile] |
| < 3.2 | C[C@@H]1CN(c2ccc(C#N)c3nccnc23)C[C@@H]2c3ccc(N4CCNCC4)cc3CN12 [Example 7, 8-[(4R,10bS)-4-methyl-8-piperazin-1-yl-3,4,6,10b-tetrahydro-1H-pyrazino[2,1-a]isoindol-2-yl]quinoxaline-5-carbonitrile] |
| < 3.2 | C[C@@H]1CN(c2ccc(C#N)c3ncccc23)C[C@@H]2c3cccc(N4CCNCC4)c3CN12 [Example 8, 5-[(4R,10bS)-4-methyl-7-piperazin-1-yl-3,4,6,10b-tetrahydro-1H-pyrazino[2,1-a]isoindol-2-yl]quinoline-8-carbonitrile] |
| < 3.2 | C[C@@H]1CN(c2ccc(C#N)c3ncccc23)C[C@@H]2c3ccc(C4CCNCC4)cc3CN12 [Example 9, 5-[(4R,10bS)-4-methyl-8-(4-piperidyl)-3,4,6,10b-tetrahydro-1H-pyrazino[2,1-a]isoindol-2-yl]quinoline-8-carbonitrile] |
| < 3.2 | C[C@@H]1CN(c2ccc(C#N)c3ncccc23)C[C@@H]2c3ccc(N4CCNC[C@@H]4CO)cc3CN12 [Example 10, 5-[(4R,10bS)-8-[(2R)-2-(hydroxymethyl)piperazin-1-yl]-4-methyl-3,4,6,10b-tetrahydro-1H-pyrazino[2,1-a]isoindol-2-yl]quinoline-8-carbonitrile] |
| 3.4 | C[C@@H]1CN(c2ccc(C#N)c3ncccc23)C[C@@H]2c3ccc(N4CCNC[C@H]4CO)cc3CN12 [Example 11, 5-[(4R,10S)-8-[(2S)-2-(hydroxymethyl)piperazin-1-yl]-4-methyl-3,4,6,10b-tetrahydro-1H-pyrazino[2,1-a]isoindol-2-yl]quinoline-8-carbonitrile] |
| < 3.2 | C[C@@H]1CN(c2ccc(C#N)c3ncccc23)C[C@@H]2c3ccc(N4CCN[C@H](CO)C4)cc3CN12 [Example 12, 5-[(4R,10bS)-8-[(3S)-3-(hydroxymethyl)piperazin-1-yl]-4-methyl-3,4,6,10b-tetrahydro-1H-pyrazino[2,1-a]isoindol-2-yl]quinoline-8-carbonitrile] |
| 3.6 | C[C@@H]1CN(c2ccc(C#N)c3ncccc23)C[C@@H]2c3ccc(N4CCC(N)(CO)C4)cc3CN12 (stereo partly drawn) [Example 19, 5-[(4R,10bS)-8-[3-amino-3-(hydroxymethyl)pyrrolidin-1-yl]-4-methyl-3,4,6,10b-tetrahydro-1H-pyrazino[2,1-a]isoindol-2-yl]quinoline-8-carbonitrile] |
| 7 | CN[C@H]1CN(c2ccc3c(c2)CN2[C@H](C)CN(c4ccc(C#N)c5ncccc45)C[C@H]32)C[C@@H]1OC [Example 23, 5-[(4R,10bS)-8-[(3S,4S)-3-methoxy-4-(methylamino)pyrrolidin-1-yl]-4-methyl-3,4,6,10b-tetrahydro-1H-pyrazino[2,1-a]isoindol-2-yl]quinoline-8-carbonitrile] |
